Test results from patent publication US11746103B2, “ALK-5 inhibitors and uses thereof” (Sumitomo Pharma Oncology, Inc., priority 2020, dated 2023).

How the values were obtained:
[1] = target: ALK-5 (Homo sapiens (Human), UniProt P36897); assay: LanthaScreen Eu Kinase Binding Assay, ALK-5; settings: for IC50: read-out: Kinase Inhibition: ALK5 IC50
Procedure: Activity determinations and selectivity were conducted by Thermo Fisher Scientific “SelectScreen™ Biochemical Kinase Profiling Service” using their “LanthaScreen™ Eu Kinase Binding Assay Screening” (www.thermofisher.com/selectscreen). Binding of an Alexa Fluor™ conjugate or “tracer” to a kinase is detected by addition of a Eu-labeled anti-tag antibody. Binding of the tracer and antibody to a kinase results in a high degree of FRET, whereas displacement of the tracer with a kinase inhibitor results in a loss of FRET. This assay is carried out by mixing the compound tested with the reagents and reading, no development step is required. Life Technologies' Kinase Tracers are based on ATP-competitive kinase inhibitors, making them suitable for detection of any compounds that bind to the ATP site. Inhibitors that bind the ATP site include both Type I kinase inhibitors, which bind solely to the ATP site, and Type II inhibitors (e.g., Gleevec®/Imatinib, Sorafenib, BIRB-796), which bind to both the ATP site and a second site often referred to as the allosteric site. […] For 10 point titrations, 3-fold serial dilutions are conducted from the starting concentration (see Table 2 below). [table] All Kinase/Antibody Mixtures are diluted to a 2× working concentration in the specified kinase buffer. The 4× AlexaFluor labeled Tracer is prepared in Kinase Buffer. Bar-coded, low volume, white 384-well plate (Greiner Cat. #784207) […] 2. 3.84 μL—Kinase Buffer […] 4. 4.0 μL—4× Tracer 5. 30-second plate shake 6. 60-minute incubation at room temperature 7. […] The LanthaScreen Eu Kinase Binding Assay data is analyzed using the equations in Table 3 for each set of data points. [table] Data generated were plotted using the graphing software XLfit from IDBS. The dose response curve is curve fit to model number 205.

[2] = test system: TGF-beta induced SMAD signaling; assay: RDSR (RD SMAD reporter) Cellular Reporter Assay; type: cell-based; settings: Homo sapiens; 200 pg/ml rhTGF-beta1, 24 h; read-out: RD-SMAD reporter activity
Source text: TGF-β signaling is triggered when the activated TGF-β homodimer binds to the TGF-β receptor 2, which in turn leads to the recruitment and phosphorylation of TGF-β receptor 1 (ALK5). Activated TGF-β receptor 1 phosphorylates the signal transduction molecules SMAD2 and SMAD3. These bind to common mediator SMAD4 and translocate to the nucleus where they bind to short conserved DNA sequences called the SMAD binding element and induce the transcription of various target genes. […] Certain example compounds were also or alternatively assayed using the RDSR Cellular Reporter Assay. Overview and Design: The RD SMAD reporter (RDSR) cell line was generated by stabily integrating the SMAD cellular reporter plasmid (Promega, pGL4.48[luc2P/SBE/Hygro]) into the human rhabdomyosarcoma cell line RD (ATCC, CCL-136). Once SMAD signaling is triggered, with, for example, the addition of TGF-β 1, receptor activated SMADs bind the SMAD binding elements (SBEs) leading to the expression of intracellular luciferase. To determine the potency of compounds at inhibiting TGF-beta induced SMAD signaling, the RDSR reporter system was utilized. The rhabdomyosarcoma line RD (ATCC, CCL-136) was transfected with a SMAD reporter vector (Promega, E3671) and a polyclonal stable cell line was selected using hygromycin B. The transfected vector contains three copies of a SMAD-binding element (SBE) that drive transcription of the luciferase reporter gene luc2P (Photinus pyralis). luc2P is a synthetically-derived luciferase sequence with humanized codon optimization that is designed for high expression and reduced anomalous transcription. The luc2P gene contains hPEST, a protein destabilization sequence, which allows luc2P protein levels to respond more quickly than those of luc2 to induction of transcription. The intracellular luciferase is quantified by the addition of equal volume (100 μl) of ONE-GLO substrate (Promega, E6120) and read within ten minutes on the Envision plate reader. The stable RDSR cell line was tested by evaluating the response to human TGF-β1 (R&D Systems, 7754-BH-005) as well as human myostatin (R&D Systems, 788-G8-010/CF) in a concentration dependent manner after twenty-four hours of stimulation. […] For compound evaluation, the tool drugs Galunisertib and Vactosertib were included as positive controls. The tool drugs and the compounds of the invention being tested were all incubated with cells for one hour at 37° C. before stimulation with 200 pg/ml rhTGF-beta1 for twenty-four hours. The activity of the reporter was determined with the addition of ONE-GLO (Promega) substrate and luminescence counts collected on the Envision plate reader (Perkin Elmer). […] The activity of compounds of the invention as determined using this method are reported in the third column of Table 1, below.

ALK-5, sequence (P36897 34-503): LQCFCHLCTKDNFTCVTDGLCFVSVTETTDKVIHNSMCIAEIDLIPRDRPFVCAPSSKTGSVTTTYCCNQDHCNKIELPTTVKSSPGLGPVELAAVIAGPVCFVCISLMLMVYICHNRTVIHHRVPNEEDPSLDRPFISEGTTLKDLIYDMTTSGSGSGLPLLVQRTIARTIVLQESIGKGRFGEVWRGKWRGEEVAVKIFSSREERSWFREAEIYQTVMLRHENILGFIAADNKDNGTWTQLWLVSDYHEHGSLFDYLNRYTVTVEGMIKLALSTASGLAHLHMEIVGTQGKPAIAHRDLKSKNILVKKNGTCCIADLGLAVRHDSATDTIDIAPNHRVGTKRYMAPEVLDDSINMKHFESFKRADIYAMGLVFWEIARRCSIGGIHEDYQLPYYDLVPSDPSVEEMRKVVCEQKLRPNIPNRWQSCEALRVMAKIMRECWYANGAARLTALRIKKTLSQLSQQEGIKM

| SMILES | Kinase Selectivity: ALK2 IC50/ ALK5 IC50 [1] | IC50 [1] | IC50 [2] |
| --- | --- | --- | --- |
| Cc1c(F)ccc2c(Nc3ccnc(Nc4cccc(N5CCOCC5)c4)n3)cnnc12 [EX-40, N4-(7-fluoro-8-methylcinnolin-4-yl)-N2-(3-morpholinophenyl)pyrimidine-2,4-diamine] | (++) (10<ALK2/ALK5<100=[++]) | < 10 nM | < 100 nM |
| Cc1cccc2c(Nc3ccnc(Nc4ccc(N5CCN(C)CC5)cc4F)n3)cnnc12 [EX-21, N2-(2-fluoro-4-(4-methyl-piperazin-1-yl)phenyl)-N4-(8-methyl-cinnolin-4-yl)-pyrimidine-2,4-diamine] | (++) (10<ALK2/ALK5<100=[++]) | 10 to 100 nM | 100 to 1000 nM |
| Cc1cccc2c(Nc3ccnc(Nc4ccc(N5CCN(C)CC5)c(F)c4)n3)cnnc12 [EX-53, N2-(3-fluoro-4-(4-methylpiperazin-1-yl)phenyl)-N4-(8-methylcinnolin-4-yl)pyrimidine-2,4-diamine] | (++) (10<ALK2/ALK5<100=[++]) | < 10 nM | < 100 nM |
| Cc1cccc2c(Nc3ccnc(Nc4cccc(CN5CCNCC5)c4)n3)cnnc12 [EX-31, N4-(8-methylcinnolin-4-yl)-N2-(3-(piperazin-1-ylmethyl)phenyl)pyrimidine-2,4-diamine] | (+) (≤10=[+]) | < 10 nM | < 100 nM |
| Cc1cccc2c(Nc3nc(Nc4ccc(N5CCNCC5)cc4)ncc3F)cnnc12 [EX-09, 5-fluoro-N4-(8-methyl-cinnolin-4-yl)-N2-(4-(piperazin-1-yl)phenyl)pyrimidine-2,4-diamine] | (+) (≤10=[+]) | 10 to 100 nM | 100 to 1000 nM |
| Cc1cccc2c(Nc3ccnc(Nc4ccc(N5CCN(CCO)CC5)cc4)n3)cnnc12 [EX-37, 2-(4-(4-((4-((8-methylcinnolin-4-yl)amino)pyrimidin-2-yl)amino)phenyl)piperazin-1-yl)ethan-1-ol] | (++) (10<ALK2/ALK5<100=[++]) | < 10 nM | < 100 nM |
| Cc1cccc2c(Nc3ccnc(Nc4ccc(CN5CCN(C)CC5)c(C(F)(F)F)c4)n3)cnnc12 [EX-28, N4-(8-methylcinnolin-4-yl)-N2-(4-((4-methylpiperazin-1-yl)methyl)-3-(trifluoromethyl)phenyl)pyrimidine-2,4-diamine] | (++) (10<ALK2/ALK5<100=[++]) | < 10 nM | < 100 nM |
| Cc1cccc2c(Nc3ccnc(Nc4cc(F)cc(CC5CCN(C)CC5)c4)n3)cnnc12 [EX-43, N2-(3-fluoro-5-((1-methylpiperidin-4-yl)methyl)phenyl)-N4-(8-methylcinnolin-4-yl)pyrimidine-2,4-diamine] | (+) (≤10=[+]) | < 10 nM | 100 to 1000 nM |
| Cc1cc(F)cc2c(Nc3ccnc(Nc4ccc(N5CCN(C)CC5)cc4)n3)cnnc12 [EX-07, N4-(6-fluoro-8-methylcinnolin-4-yl)-N2-(4-(4-methylpiperazin-1-yl)phenyl)pyrimidine-2,4-diamine] | (++) (10<ALK2/ALK5<100=[++]) | < 10 nM | < 100 nM |
| Cc1c(F)ccc2c(Nc3ccnc(Nc4ccc(N5CCOCC5)cc4)n3)cnnc12 [EX-41, N4-(7-fluoro-8-methylcinnolin-4-yl)-N2-(4-morpholinophenyl)pyrimidine-2,4-diamine] | (++) (10<ALK2/ALK5<100=[++]) | < 10 nM | < 100 nM |
| Cc1cccc2c(Nc3ccnc(Nc4ccc(C5CCCCC5)cc4)n3)cnnc12 [EX-56, N2-(4-cyclohexylphenyl)-N4-(8-methylcinnolin-4-yl)pyrimidine-2,4-diamine] | (+++) (100≤ALK2/ALK5=[+++]) | < 10 nM | 100 to 1000 nM |
| Cc1cccc2c(Nc3ccnc(Nc4cc(F)cc(CN5CCNCC5)c4)n3)cnnc12 [EX-06, N2-(3-fluoro-5-(piperazin-1-ylmethyl)phenyl)-N4-(8-methyl-cinnolin-4-yl)pyrimidine-2,4-diamine] | (+) (≤10=[+]) | < 10 nM | < 100 nM |
| Cc1cccc2c(Nc3ccnc(Nc4ccc(CN5CCN(C)CC5)cc4)n3)cnnc12 [EX-26, N4-(8-methylcinnolin-4-yl)-N2-(4-((4-methylpiperazin-1-yl)methyl)phenyl)pyrimidine-2,4-diamine] | (++) (10<ALK2/ALK5<100=[++]) | < 10 nM | < 100 nM |
| Cc1cccc2c(Nc3ccnc(Nc4cccc(S(N)(=O)=O)c4)n3)cnnc12 [EX-35, 3-((4-((8-methylcinnolin-4-yl)amino)-pyrimidin-2-yl)amino)benzenesulfonamide] | (+) (≤10=[+]) | < 10 nM | < 100 nM |
| Cc1cccc2c(Nc3ccnc(Nc4cc(CC5CCNCC5)ccc4F)n3)cnnc12 [EX-16, N2-(2-fluoro-5-(piperidin-4-ylmethyl)-phenyl)-N4-(8-methyl-cinnolin-4-yl)-pyrimidine-2,4-diamine] | (++) (10<ALK2/ALK5<100=[++]) | 10 to 100 nM | 100 to 1000 nM |
| Cc1cccc2c(Nc3ccnc(Nc4ccc(N5CC6CC5CN6C)cc4)n3)cnnc12 (stereo not drawn) [EX-45, N2-(4-(5-methyl-2,5-diazabicyclo[2.2.1]heptan-2-yl)phenyl)-N4-(8-methylcinnolin-4-yl)pyrimidine-2,4-diamine] | (++) (10<ALK2/ALK5<100=[++]) | < 10 nM | < 100 nM |
| Cc1nnc2c(C)cccc2c1Nc1ccnc(Nc2ccc(N3CCOCC3)cc2)n1 [EX-52, N4-(3,8-dimethylcinnolin-4-yl)-N2-(4-morpholinophenyl)pyrimidine-2,4-diamine] | (+) (≤10=[+]) | < 10 nM | 100 to 1000 nM |
| Cc1cccc2c(Nc3ccnc(Nc4ccc(N5CCN(CC(F)(F)F)CC5)cc4)n3)cnnc12 [EX-17, N4-(8-methyl-cinnolin-4-yl)-N2-(4-(4-(2,2,2-trifluoroethyl)-piperazin-1-yl)phenyl)-pyrimidine-2,4-diamine] | (++) (10<ALK2/ALK5<100=[++]) | < 10 nM | < 100 nM |
| Cc1ccc(F)c2c(Nc3ccnc(Nc4ccc(N5CCN(C)CC5)cc4)n3)cnnc12 [EX-24, N4-(5-fluoro-8-methylcinnolin-4-yl)-N2-(4-(4-methylpiperazin-1-yl)phenyl)pyrimidine-2,4-diamine] | (++) (10<ALK2/ALK5<100=[++]) | < 10 nM | < 100 nM |
| Cc1cccc2c(Nc3ccnc(Nc4cccc(CN5CCN(C)CC5)c4)n3)cnnc12 [EX-04, N4-(8-methyl-cinnolin-4-yl)-N2-(3-((4-methyl-piperazin-1-yl)methyl)phenyl)pyrimidine-2,4-diamine] | (+) (≤10=[+]) | < 10 nM | < 100 nM |
| c1cc(C2CC2)c2nncc(Nc3ccnc(Nc4ccc(N5CCOCC5)cc4)n3)c2c1 [EX-58, N4-(8-cyclopropylcinnolin-4-yl)-N2-(4-morpholinophenyl)pyrimidine-2,4-diamine] | (++) (10<ALK2/ALK5<100=[++]) | < 10 nM | < 100 nM |
